Counter-ions that a name gives are not always drawn. Like-named read-outs stand apart in the source and are kept apart here.
Key:
[1] = Anti-radical activity in vitro, free radical scavenging (DPPH method); conditions: for IC50: DPPH method
Method: The anti-radical activity of compound Ia was measured "in vitro" by testing the disappearance of the free 1,1-diphenyl-2-picrylhydrazyl (DPPH) radical (J. Pincemail et al., Stud. Org. Chem. 23, 423, 1985).

[2] = test system: liver poisoning by praseodymium; experiment: Antihepatotoxic activity, praseodymium test on the rat (oral administration); type: in vivo
Description: (§1) In order to test its pharmacological activity, compound (Ia) has been administered intravenously and orally in liver poisoning tests, such as the praseodymium poisoning test on the rat and the phalloidine poisoning test on the mouse, both tests being widely described in the literature for use in studying the antihepatotoxic effect of silymarin and silybin (Vogel, in "Studies in Organic Chemistry, Vol. 11, Flavonoids and Bioflavonoids, page 461, Elsevier 1982).

Rat = conditions: i.v., A. Desplaces et al., 1975; cited from earlier work
Mouse = conditions: i.v., A. Desplaces et al., 1975; cited from earlier work
[3] = test system: liver poisoning by praseodymium; experiment: Antihepatotoxic activity, praseodymium test on the rat (i.v. administration); type: in vivo
Description: as §1
Silybin 11-phosphate was intravenously administered one hour before the praseodymium (10 mg/kg i.v.).

[4] = test system: poisoning with phalloidine; experiment: Antihepatotoxic activity, mouse poisoned with phalloidine (i.v. administration); type: in vivo; conditions: for Death Rate: 10 animals/group
Description: as §1
Silybin dihemisuccinate, when tested at a dose equal to 1/13 of the LD50 i.v. in the mouse, protected only 60% of the mice from death by phalloidine (Table 4).

[5] = test system: mice subjected to hypobaric anoxia; experiment: Hypobaric anoxia: protective effect on survival time of mice subjected to hypoxia (i.p.); type: in vivo, mouse; conditions: for ED50: Mus musculus, ip
Description: Table 5 gives data showing the effect of compound Ia on the survival time of mice subjected to hypobaric anoxia. In this test (M. Nakanishi et al., Life Sciences, 13, 467, 1973), compound Ia was intraperitoneally injected half an hour before the anoxia.

Acute toxicity, rat = conditions: in vivo, iv
Acute toxicity, mouse = conditions: in vivo, iv
[6] = read-out: IC50 (confidence limits p = 0.95)
[7] = corresponds to μM silybin, read-out: IC50, corresponding silybin concentration
[8] = corresponds to mg/kg silybin, read-out: Survival Time ED50, corresponding silybin dose
[9] = half an hour before the anoxia, read-out: Survival Time ED50 (confidence limits p = 0.95)
[10] = rat, simultaneously with praseodymium

For `COc1cc(C2Oc3cc([C@H]4Oc5cc(O)cc(O)c5C(=O)[C@@H]4O)ccc3OC2CO)ccc1O` (stereo partly drawn) [Silybin, silybin], the IC50 [1, 6] was 327 µM, the “ALAT, percentage variation relative to the praseodymium group” value ([2]; rat, 250 mg/kg) was “+1%” and the “ASAT, percentage variation relative to the praseodymium group” value ([2]; rat, 250 mg/kg) was -2%. For the same compound, the “Serum enzymes ALAT, m ± s.e.” value ([2]; rat, 250 mg/kg) was 3620 ± 795.8 U/L and the “Serum enzymes ASAT, m ± s.e.” value ([2]; rat, 250 mg/kg) was 3680.2 ± 885.6 U/L.
For `COc1cc(C2Oc3cc(C4Oc5cc(O)cc(O)c5C(=O)C4OC(=O)CCC(=O)O)ccc3OC2COC(=O)CCC(=O)O)ccc1O` (stereo not drawn) [Silybin dihemisuccinate, silybin dihemisuccinate], the LD50 (Rat) is listed as 920(1) (906-940) mg/kg, the LD50 (Mouse) is listed as 970(1) (931-1010) mg/kg and the IC50 [1, 7] is listed as 322 µM. The IC50 [1, 6] was 565 µM, the “ALAT, percentage variation relative to the praseodymium group” value ([3]; rat, i.v., 7.5 mg/kg) was -21% and the “ASAT, percentage variation relative to the praseodymium group” value ([3]; rat, i.v., 7.5 mg/kg) was -11%. For the same compound, the “Liver Wt, m ± s.e.” value ([3]; rat, i.v., 7.5 mg/kg) was 12.6 ± 0.5 g, the “Liver Wt, percentage variation relative to the praseodymium group” value ([3]; rat, i.v., 7.5 mg/kg) was -3% and the “Liver triglycerides, m ± s.e.” value ([3]; rat, i.v., 7.5 mg/kg) was 6692.8 ± 738.3. For the same compound, the “Liver triglycerides, percentage variation relative to the praseodymium group” value ([3]; rat, i.v., 7.5 mg/kg) was -18%, the “Serum enzymes ALAT, m ± s.e.” value ([3]; rat, i.v., 7.5 mg/kg) was 1366. ± 343.1 U/L and the “Serum enzymes ASAT, m ± s.e.” value ([3]; rat, i.v., 7.5 mg/kg) was 1672.0 ± 292.8 U/L. The “ALAT, percentage variation relative to the praseodymium group” value ([3]; rat, i.v., 37.5 mg/kg) was “+64%”, the “ASAT, percentage variation relative to the praseodymium group” value ([3]; rat, i.v., 37.5 mg/kg) was “+38%” and the “Liver Wt, m ± s.e.” value ([3]; rat, i.v., 37.5 mg/kg) was 12.6 ± 0.4 g. For the same compound, the “Liver Wt, percentage variation relative to the praseodymium group” value ([3]; rat, i.v., 37.5 mg/kg) was “+1%”, the “Liver triglycerides, m ± s.e.” value ([3]; rat, i.v., 37.5 mg/kg) was 7083.9 ± 747.5 and the “Liver triglycerides, percentage variation relative to the praseodymium group” value ([3]; rat, i.v., 37.5 mg/kg) was -19%. For the same compound, the “Serum enzymes ALAT, m ± s.e.” value ([3]; rat, i.v., 37.5 mg/kg) was 1988.3 ± 465.3 U/L, the “Serum enzymes ASAT, m ± s.e.” value ([3]; rat, i.v., 37.5 mg/kg) was 2600.0 ± 570.9 U/L and the “ALAT, percentage variation relative to the praseodymium group” value ([3]; rat, i.v., 75 mg/kg) was -65%. The “ASAT, percentage variation relative to the praseodymium group” value ([3]; rat, i.v., 75 mg/kg) was -53%, the “Liver Wt, m ± s.e.” value ([3]; rat, i.v., 75 mg/kg) was 12.1 ± 0.5 g and the “Liver Wt, percentage variation relative to the praseodymium group” value ([3]; rat, i.v., 75 mg/kg) was -1%. For the same compound, the “Liver triglycerides, m ± s.e.” value ([3]; rat, i.v., 75 mg/kg) was 9221.0 ± 910.4, the “Liver triglycerides, percentage variation relative to the praseodymium group” value ([3]; rat, i.v., 75 mg/kg) was “+11%” and the “Serum enzymes ALAT, m ± s.e.” value ([3]; rat, i.v., 75 mg/kg) was 422.9 ± 85.6 U/L. For the same compound, the “Serum enzymes ASAT, m ± s.e.” value ([3]; rat, i.v., 75 mg/kg) was 887.0 ± 63.1 U/L, the “Activity in the praseodymium test” value ([3]; rat, i.v., lower doses comparable with those of compound (Ia)) was “no activity” and the “Dose for preventing praseodymium poisoning” value ([3]; rat, i.v., LD50 reported in the literature) was 1/12. The Percentage of deaths ([4]; i.v., 75.0 mg/kg) was 40%, the “Death Rate” value ([4]; i.v., 75.0 mg/kg) was 4 and the “Mice protected from death by phalloidine” value ([4]; i.v., dose equal to 1/13 of the LD50 i.v.) was 60%. The “ALAT, percentage variation relative to the praseodymium group” value ([2]; rat, 375 mg/kg) was -75%, the “ASAT, percentage variation relative to the praseodymium group” value ([2]; rat, 375 mg/kg) was -70% and the “Serum enzymes ALAT, m ± s.e.” value ([2]; rat, 375 mg/kg) was 886.7 ± 395.1 U/L. The “Serum enzymes ASAT, m ± s.e.” value ([2]; rat, 375 mg/kg) was 1118.3 ± 512.0 U/L, the ED50 [5, 8] was 97.3 mg/kg and the ED50 [5, 9] was 108 mg/kg.
Work on `COc1cc(C2Oc3cc(C4Oc5cc(O)cc(O)c5C(=O)C4O)ccc3OC2COP(=O)(O)O)ccc1O` (stereo not drawn) [Silybin 11-phosphate (Ia, sodium salt), sodium salt of silybin 11-phosphate] yielded an LD50 (Acute toxicity, rat) of 415 mg/kg and an LD50 (Acute toxicity, mouse) of 235 mg/kg.
In the case of `COc1cc(C2Oc3cc(C4Oc5cc(O)cc(O)c5C(=O)C4O)ccc3OC2COP(=O)(O)O)ccc1O` (stereo not drawn) [Silybin 11-phosphate (Ia), Silybin 11-phosphate], the IC50 [1, 7] is reported as 85 µM, the IC50 [1, 6] is reported as 107 µM and the “Activity in destroying free radicals” value ([1]; in vitro, DPPH) is reported as “significantly active in destroying free radicals”. For the same compound, the “Anti-radical activity relative to silybin or succinylsilybin” value ([1]; more active than either silybin or succinylsilybin) was “about 3.5 times”, the “Pharmacological activity compared with silybin dihemisuccinate” value ([3]; intravenous, liver poisoning tests (praseodymium rat, phalloidine mouse)) was “much higher pharmacological activity than silybin dihemisuccinate” and the “ALAT, percentage variation relative to the praseodymium group” value ([3]; rat, i.v., 6.32 mg/kg) was -71%. The “ASAT, percentage variation relative to the praseodymium group” value ([3]; rat, i.v., 6.32 mg/kg) was -54%, the “Liver Wt, m ± s.e.” value ([3]; rat, i.v., 6.32 mg/kg) was 12.6 ± 0.5 g and the “Liver Wt, percentage variation relative to the praseodymium group” value ([3]; rat, i.v., 6.32 mg/kg) was -10%. For the same compound, the “Liver triglycerides, m ± s.e.” value ([3]; rat, i.v., 6.32 mg/kg) was 4792.4 ± 1068.8, the “Liver triglycerides, percentage variation relative to the praseodymium group” value ([3]; rat, i.v., 6.32 mg/kg) was -41% and the “Serum enzymes ALAT, m ± s.e.” value ([3]; rat, i.v., 6.32 mg/kg) was 495.0 ± 244.6 U/L. The “Serum enzymes ASAT, m ± s.e.” value ([3]; rat, i.v., 6.32 mg/kg, 1 h before praseodymium 10 mg/kg i.v.) was 877.0 ± 420.5 U/L, the “ALAT, percentage variation relative to the praseodymium group” value ([3]; rat, i.v., 15.8 mg/kg) was -97% and the “ASAT, percentage variation relative to the praseodymium group” value ([3]; rat, i.v., 15.8 mg/kg) was -95%. The “Liver Wt, m ± s.e.” value ([3]; rat, i.v., 15.8 mg/kg) was 8.7 ± 0.2 g, the “Liver Wt, percentage variation relative to the praseodymium group” value ([3]; rat, i.v., 15.8 mg/kg) was -30% and the “Liver triglycerides, m ± s.e.” value ([3]; rat, i.v., 15.8 mg/kg) was 672.7 ± 100.5. The “Liver triglycerides, percentage variation relative to the praseodymium group” value ([3]; rat, i.v., 15.8 mg/kg) was -92%, the “Serum enzymes ALAT, m ± s.e.” value ([3]; rat, i.v., 15.8 mg/kg) was 31.3 ± 3.2 U/L and the “Serum enzymes ASAT, m ± s.e.” value ([3]; rat, i.v., 15.8 mg/kg) was 90.9 ± 8.9 U/L. For the same compound, the “Effect on praseodymium-induced increases” value ([3]; rat, i.v., dose equal to 1/26 of the LD50) was “inhibited the increase in activity of the two serum transaminases and the increase in the weight of the liver and the hepatic triglycerides”, the “Activity in the praseodymium test” value ([3]; rat, i.v., dose of 1/65 of the LD50) was “Activity was maintained” and the “Activity compared with silybin dihemisuccinate in the phalloidine test” value ([4]; 63 and 126 mg/kg i.v.) was “markedly superior to silybin dihemisuccinate”. For the same compound, the Percentage of deaths ([4]; i.v., 15.8 mg/kg) was 0%, the “Death Rate” value ([4]; i.v., 15.8 mg/kg, 1 h before phalloidine 3 mg/kg i.p.) was 0 and the “Protection from death by phalloidine” value ([4]; i.v., dose equal to 1/15 of the LD50 i.v.) was “protected all the mice from death”. The “Antihepatotoxic activity compared with silybin” value [2] was “greater than that of silybin”, the “ALAT, percentage variation relative to the praseodymium group” value ([2]; rat, 315 mg/kg) was -78% and the “ASAT, percentage variation relative to the praseodymium group” value ([2]; rat, 315 mg/kg) was -75%. For the same compound, the “Serum enzymes ALAT, m ± s.e.” value ([2]; rat, 315 mg/kg) was 783.3 ± 304.6 U/L, the “Serum enzymes ASAT, m ± s.e.” value ([2]; rat, 315 mg/kg, simultaneously with praseodymium) was 931.7 ± 299.0 U/L and the “Activity in counteracting the increase in the two serum transaminases compared with silybin” value [2, 10] was “considerably more active than silybin alone”. For the same compound, the “Activity in counteracting the increase in the two serum transaminases compared with silybin dihemisuccinate” value [2, 10] was “as active as silybin dihemisuccinate”, the “Activity in prolonging the survival time” value [5] was “active in prolonging the survival time” and the “Activity in prolonging the survival time compared with succinylsilybin” value [5] was “significantly more active than succinylsilybin”. For the same compound, the ED50 [5, 8] was 36.3 mg/kg and the ED50 [5, 9] was 45.7 mg/kg.
